What all share (assay): Pre-emergent herbicidal activity (Table A)
What all share (format): in vivo

Test [1] deals with Cocklebur. Conditions: Xanthium strumarium, pre-emergence, Cobu, 11.2 kg/ha, 10-14 days, read-out: herbicidal rating (% inhibition). Summed up:
(§1)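 Percent inhibition per species, scored on a rating scale, after pre-emergent soil incorporation: test compound in acetone or water carrier mixed into cover soil, layered over seeded topsoil or vegetative propagules.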

Test [2] concerns Morningglory. The settings on record: Ipomoea, pre-emergence, Mogl, 11.2 kg/ha, 10-14 days, read-out: herbicidal rating (% inhibition). Summed up: as §1
The subject of test [3] is Velvetleaf. Conditions: Abutilon theophrasti, pre-emergence, Vele, 11.2 kg/ha, 10-14 days, read-out: herbicidal rating (% inhibition). The method, boiled down: as §1
Test [4] has as its system Barnyardgrass. Conditions: Echinochloa crus-galli, pre-emergence, Bygr, 11.2 kg/ha, 10-14 days, read-out: herbicidal rating (% inhibition). The method, boiled down: as §1
Test [5] relates to Yellow Nutsedge. The settings on record: Cyperus, pre-emergence, Yens, 11.2 kg/ha, 10-14 days, read-out: herbicidal rating (% inhibition). The method, boiled down:
as §1

For test [6], the system named is Downy Brome. The settings on record: Bromus tectorum, pre-emergence, Dobr, 11.2 kg/ha, 10-14 days, read-out: herbicidal rating (% inhibition). Summed up: as §1
Test [7] deals with Seedling Johnsongrass. The settings on record: Sorghum halepense, pre-emergence, Sejg, 11.2 kg/ha, 10-14 days, read-out: herbicidal rating (% inhibition). As for the experimental part: (§2) Tables A and B summarize results of tests conducted to determine the pre-emergent herbicidal activity of the compounds of this invention. The herbicidal ratings used in Tables A and B were assigned according to a scale based on the percent inhibition of each plant species. The herbicide rating symbols in Tables A and B are defined as follows: […]
(§3) One set of pre-emergent tests was conducted as follows:
(§4) Topsoil was placed in a pan and compacted to a depth of 0.95 to 1.27 cm. from the top of the pan. A predetermined number of seeds of each of several monocotyledonous and dicotyledonous annual plant species and/or vegetative propagules of various perennial plant species were placed on top of the soil. The soil required to level fill a pan after seeding or adding vegetative propagules was weighed into another pan. A known amount of the test compound dissolved or suspended in an organic solvent or water and applied in acetone or water as a carrier was thoroughly mixed with this cover soil, and the herbicide/soil mixture was used as a cover layer for the previously prepared pan. In Table A below the amounts of active ingredient were all equivalent to an application rate of 11.2 kilograms/hectare (kg/ha). After treatment, the pans were moved to a greenhouse bench where they were watered as needed to give adequate moisture for germination and growth.
(§5) Approximately 10-14 days (usually 11 days) after planting and treating, the plants were observed and the results recorded.
(§6) The plant species usually regarded as weeds which were utilized in one set of pre-emergent activity tests, the data for which are shown in Table A, are identified by letter headings printed diagonally above the columns according to the following legend: […]

The subject of test [8] is Annual Bluegrass. The settings on record: pre-emergence, Anbg, 11.2 kg/ha, 10-14 days, read-out: herbicidal rating (% inhibition). As for the experimental part:
as §2, §3, §4, §5, §6

The subject of test [9] is Wild Buckwheat. The settings on record: Fallopia convolvulus, pre-emergence, Wibw, 11.2 kg/ha, 10-14 days, read-out: herbicidal rating (% inhibition). As to the method: as §2, §3, §4, §5, §6
Test [10] concerns Indian Mustard. Conditions: Brassica juncea, pre-emergence, Inmu, 11.2 kg/ha, 10-14 days, read-out: herbicidal rating (% inhibition). As for the experimental part: as §2, §3, §4, §5, §6

This note sets out measurements from patent US5391540A, “Substituted pyridine compounds” (Rohm and Haas Company, priority 1993, dated 1995).

As usually defined, the inhibition is the drop in the measured response relative to a control, in per cent. As for `COC(=O)c1c(OC)nc(C(F)(F)F)c(C2=NCCCO2)c1CC(C)C` [Compound 99], the inhibition at 11200 g/ha was in the range of 0 to 24% in test [1]; 50 to 74% in [2]; 75 to 100% in test [3]; 75 to 100% in [4]; 0 to 24% in test [5]; 75 to 100% in test [6]. Further, the inhibition at 11200 g/ha fell in the range of 75 to 100% in test [7], 75 to 100% in test [8], 25 to 49% in [9] and 75 to 100% in [10].

For the molecule `COC(=O)c1c(OC)nc(C(F)(F)F)c(C(=O)NNC(C)=O)c1CC(C)C` [Compound 100, 3,5-pyridinedicarboxylic acid, 2-methoxy-4-(2-methylpropyl)-6-(trifluoromethyl)-, 3-methyl ester 5-(2-acetylhydrazide)], the inhibition at 11200 g/ha in [1], in [2], in test [3], in test [4], in [5] and in [6] was 0 to 24% throughout. For the same molecule, the inhibition at 11200 g/ha in [7] was in the range of 0 to 24%; in [8], 75 to 100%; in test [9], 0 to 24%; in test [10], 0 to 24%.

For `COC(=O)c1c(OC)nc(C(F)(F)F)c(C(=O)n2cc([N+](=O)[O-])cn2)c1CC(C)C` [Compound 101, 3-pyridinecarboxylic acid, 2-methoxy-4-(2-methylpropyl)-5-[(4-nitro-1H-pyrazo1-1-yl)carbonyl]-6-(trifluoromethyl)-, methyl ester], the inhibition at 11200 g/ha was in the range of 25 to 49% in test [1]; 50 to 74% in [2]; 50 to 74% in [3]; 75 to 100% in [4]; 0 to 24% in test [5]; 50 to 74% in test [6]. Besides, the inhibition at 11200 g/ha in test [7], in [8], in [9] and in test [10] was 75 to 100% each time.

With `COC(=O)c1c(OC)nc(C(F)(F)F)c(C(=O)n2ccc(F)n2)c1CC(C)C` [Compound 102, 3-pyridinecarboxylic acid, 5-[(3-fluoro-1H-pyrazo1-1-yl)carbonyl]-2-methoxy-4-(2-methylpropyl)-6-(trifluoromethyl)-, methyl ester], the inhibition at 11200 g/ha in test [1], in test [2], in test [3], in test [4], in test [5] and in [6] was 75 to 100% in each case. The inhibition at 11200 g/ha in test [7], in [8], in test [9] and in [10] was 75 to 100% each time.

For the molecule `COC(=O)c1c(OC)nc(C(F)(F)F)c(C(=O)n2cc(Cl)cn2)c1CC(C)C` [Compound 104], the inhibition at 11200 g/ha in test [1] was in the range of 0 to 24%; in [2], 50 to 74%; in test [3], 50 to 74%; in test [4], 75 to 100%; in test [5] it was 0 to 24%; in test [6], 50 to 74%. Also, the inhibition at 11200 g/ha in test [7] was in the range of 75 to 100%; in test [8], 75 to 100%; in test [9], 50 to 74%; in [10], 75 to 100%.

Regarding `COC(=O)c1c(OC)nc(C(F)(F)F)c(C(N)=O)c1CC(C)C` [Compound 105, 3-pyridinecarboxylic acid, 5-(aminocarbonyl)-2-methoxy-4-(2-methylpropyl)-6-(trifluoromethyl)-, methyl ester], the inhibition at 11200 g/ha in test [1] is 0 to 24%; in test [2] it was 0 to 24%; in test [3], 0 to 24%; in test [4] it was 75 to 100%; in test [5], 0 to 24%; in [6] it was 0 to 24%. Moreover, the inhibition at 11200 g/ha in test [7] was in the range of 75 to 100%; in test [8], 75 to 100%; in test [9], 25 to 49%; in [10] it was 0 to 24%.
